Assay results reported in the supplement of paper PMC11208160.

Assay: recombinant barcode read abundance after kanamycin selection (control-corrected) (log10(CPM+1)); higher = more efficient recombination; sequences stand for … in AGTGCAGAGAAAATCGGCCAGTTTTCTCTGCCTGCAGTCCGCATGCCGT…ATTTATGCAGCGGACTGCCTTTCTCCCAAAGTGATAAACCGGACAGTATCATGGACCGGTTTTCCCGGTAATCCGTATTTGCAAGGTTGGTTTCACT; site = the 11-nt target
Method in brief: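 Reported as log10(CPM+1), each value stands for recombination efficiency. That efficiency is the averaged, control-corrected counts per million of barcodes found at recombinant junctions. Cells from a pooled E. coli library pairing targets with IS621 bridge RNA target-binding loops were plated twice on chloramphenicol/ampicillin LB agar (control) and twice on chloramphenicol/ampicillin/kanamycin with 0.1 mM IPTG.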

GCGGGACTATGGGTTCTAACCTGTTGCCTTA [GCGGGACCTAG_LTGcore_TA_RTGcore_TA] (site GCGGGACCTAG) (LTG core: TA, RTG core: TA)
recombinant barcode read abundance (log10): 0.214

GCGGGACTGTGGGTTCTAACCTGTTGCCTAG [GCGGGACCTAG_LTGcore_TG_RTGcore_CT] (site GCGGGACCTAG) (LTG core: TG, RTG core: CT)
recombinant barcode read abundance (log10): 0.316

GCGGGACTTTGGGTTCTAACCTGTTGCCTAA [GCGGGACCTAG_LTGcore_TT_RTGcore_TT] (site GCGGGACCTAG) (LTG core: TT, RTG core: TT)
recombinant barcode read abundance (log10): 0.186

GGACACCAATGGGTTCTAACCTGTTGCCTAG [GGACACCCTAG_LTGcore_AA_RTGcore_CT] (site GGACACCCTAG) (LTG core: AA, RTG core: CT)
recombinant barcode read abundance (log10): 0.294

GGACACCACTGGGTTCTAACCTGTTGCCTGT [GGACACCCTAG_LTGcore_AC_RTGcore_AC] (site GGACACCCTAG) (LTG core: AC, RTG core: AC)
recombinant barcode read abundance (log10): 0.54

GGACACCCATGGGTTCTAACCTGTTGCCTAG [GGACACCCTAG_LTGcore_CA_RTGcore_CT] (site GGACACCCTAG) (LTG core: CA, RTG core: CT)
recombinant barcode read abundance (log10): 0.765

GGACACCCATGGGTTCTAACCTGTTGCCTTG [GGACACCCTAG_LTGcore_CA_RTGcore_CA] (site GGACACCCTAG) (LTG core: CA, RTG core: CA)
recombinant barcode read abundance (log10): 0.0906

GGACACCCCTGGGTTCTAACCTGTTGCCTAG [GGACACCCTAG_LTGcore_CC_RTGcore_CT] (site GGACACCCTAG) (LTG core: CC, RTG core: CT)
recombinant barcode read abundance (log10): 1.3

GGACACCCGTGGGTTCTAACCTGTTGCCTCG [GGACACCCTAG_LTGcore_CG_RTGcore_CG] (site GGACACCCTAG) (LTG core: CG, RTG core: CG)
recombinant barcode read abundance (log10): 0.314

GGACACCCTTGGGTTCTAACCTGTTGCCTAT [GGACACCCTAG_LTGcore_CT_RTGcore_AT] (site GGACACCCTAG) (LTG core: CT, RTG core: AT)
recombinant barcode read abundance (log10): 1.28

GGACACCCTTGGGTTCTAACCTGTTGCCTCG [GGACACCCTAG_LTGcore_CT_RTGcore_CG] (site GGACACCCTAG) (LTG core: CT, RTG core: CG)
recombinant barcode read abundance (log10): 0.306

GGACACCCTTGGGTTCTAACCTGTTGCCTGA [GGACACCCTAG_LTGcore_CT_RTGcore_TC] (site GGACACCCTAG) (LTG core: CT, RTG core: TC)
recombinant barcode read abundance (log10): 1.89

GGACACCCTTGGGTTCTAACCTGTTGCCTGT [GGACACCCTAG_LTGcore_CT_RTGcore_AC] (site GGACACCCTAG) (LTG core: CT, RTG core: AC)
recombinant barcode read abundance (log10): 0.442

GGACACCGATGGGTTCTAACCTGTTGCCTAG [GGACACCCTAG_LTGcore_GA_RTGcore_CT] (site GGACACCCTAG) (LTG core: GA, RTG core: CT)
recombinant barcode read abundance (log10): 0.0895

GGACACCGGTGGGTTCTAACCTGTTGCCTAG [GGACACCCTAG_LTGcore_GG_RTGcore_CT] (site GGACACCCTAG) (LTG core: GG, RTG core: CT)
recombinant barcode read abundance (log10): 0.255

GGCTCCCAATGGGTTCTAACCTGTTGCGGAG [GGCTCCCCTCC_LTGcore_AA_RTGcore_CT] (site GGCTCCCCTCC) (LTG core: AA, RTG core: CT)
recombinant barcode read abundance (log10): 0

GGCTCCCACTGGGTTCTAACCTGTTGCGGAG [GGCTCCCCTCC_LTGcore_AC_RTGcore_CT] (site GGCTCCCCTCC) (LTG core: AC, RTG core: CT)
recombinant barcode read abundance (log10): 0.149

GGCTCCCACTGGGTTCTAACCTGTTGCGGGT [GGCTCCCCTCC_LTGcore_AC_RTGcore_AC] (site GGCTCCCCTCC) (LTG core: AC, RTG core: AC)
recombinant barcode read abundance (log10): 0.143

GGCTCCCAGTGGGTTCTAACCTGTTGCGGAG [GGCTCCCCTCC_LTGcore_AG_RTGcore_CT] (site GGCTCCCCTCC) (LTG core: AG, RTG core: CT)
recombinant barcode read abundance (log10): 0.156

GGCTCCCCTTGGGTTCTAACCTGTTGCGGAA [GGCTCCCCTCC_LTGcore_CT_RTGcore_TT] (site GGCTCCCCTCC) (LTG core: CT, RTG core: TT)
recombinant barcode read abundance (log10): 0.164

GGCTCCCCTTGGGTTCTAACCTGTTGCGGCT [GGCTCCCCTCC_LTGcore_CT_RTGcore_AG] (site GGCTCCCCTCC) (LTG core: CT, RTG core: AG)
recombinant barcode read abundance (log10): 0.0367

GGCTCCCGATGGGTTCTAACCTGTTGCGGAG [GGCTCCCCTCC_LTGcore_GA_RTGcore_CT] (site GGCTCCCCTCC) (LTG core: GA, RTG core: CT)
recombinant barcode read abundance (log10): 0.104

GGCTCCCGATGGGTTCTAACCTGTTGCGGTC [GGCTCCCCTCC_LTGcore_GA_RTGcore_GA] (site GGCTCCCCTCC) (LTG core: GA, RTG core: GA)
recombinant barcode read abundance (log10): 0.109

GGCTCCCTATGGGTTCTAACCTGTTGCGGTA [GGCTCCCCTCC_LTGcore_TA_RTGcore_TA] (site GGCTCCCCTCC) (LTG core: TA, RTG core: TA)
recombinant barcode read abundance (log10): 0.201

GGCTCCCTCTGGGTTCTAACCTGTTGCGGAG [GGCTCCCCTCC_LTGcore_TC_RTGcore_CT] (site GGCTCCCCTCC) (LTG core: TC, RTG core: CT)
recombinant barcode read abundance (log10): 0.172

GGGAGCCATTGGGTTCTAACCTGTTGCTGAG [GGGAGCCCTCA_LTGcore_AT_RTGcore_CT] (site GGGAGCCCTCA) (LTG core: AT, RTG core: CT)
recombinant barcode read abundance (log10): 0.526

GGGAGCCCGTGGGTTCTAACCTGTTGCTGAG [GGGAGCCCTCA_LTGcore_CG_RTGcore_CT] (site GGGAGCCCTCA) (LTG core: CG, RTG core: CT)
recombinant barcode read abundance (log10): 0.27

GGGAGCCCTTGGGTTCTAACCTGTTGCTGAG [GGGAGCCCTCA_LTGcore_CT_RTGcore_CT] (site GGGAGCCCTCA) (LTG core: CT, RTG core: CT)
recombinant barcode read abundance (log10): 1.87

GGGAGCCCTTGGGTTCTAACCTGTTGCTGCT [GGGAGCCCTCA_LTGcore_CT_RTGcore_AG] (site GGGAGCCCTCA) (LTG core: CT, RTG core: AG)
recombinant barcode read abundance (log10): 0.652

GGGAGCCCTTGGGTTCTAACCTGTTGCTGGC [GGGAGCCCTCA_LTGcore_CT_RTGcore_GC] (site GGGAGCCCTCA) (LTG core: CT, RTG core: GC)
recombinant barcode read abundance (log10): 0.0756

GGGAGCCCTTGGGTTCTAACCTGTTGCTGGG [GGGAGCCCTCA_LTGcore_CT_RTGcore_CC] (site GGGAGCCCTCA) (LTG core: CT, RTG core: CC)
recombinant barcode read abundance (log10): 0.111

GGGAGCCCTTGGGTTCTAACCTGTTGCTGGT [GGGAGCCCTCA_LTGcore_CT_RTGcore_AC] (site GGGAGCCCTCA) (LTG core: CT, RTG core: AC)
recombinant barcode read abundance (log10): 0.208

GGGAGCCGATGGGTTCTAACCTGTTGCTGTC [GGGAGCCCTCA_LTGcore_GA_RTGcore_GA] (site GGGAGCCCTCA) (LTG core: GA, RTG core: GA)
recombinant barcode read abundance (log10): 0.0745

GGGAGCCTGTGGGTTCTAACCTGTTGCTGAG [GGGAGCCCTCA_LTGcore_TG_RTGcore_CT] (site GGGAGCCCTCA) (LTG core: TG, RTG core: CT)
recombinant barcode read abundance (log10): 0.259

GGGAGCCTGTGGGTTCTAACCTGTTGCTGCA [GGGAGCCCTCA_LTGcore_TG_RTGcore_TG] (site GGGAGCCCTCA) (LTG core: TG, RTG core: TG)
recombinant barcode read abundance (log10): 0.285

GGGCGGAACTGGGTTCTAACCTGTTGCGGGT [GGGCGGACTCC_LTGcore_AC_RTGcore_AC] (site GGGCGGACTCC) (LTG core: AC, RTG core: AC)
recombinant barcode read abundance (log10): 0.3

GGGCGGAATTGGGTTCTAACCTGTTGCGGAG [GGGCGGACTCC_LTGcore_AT_RTGcore_CT] (site GGGCGGACTCC) (LTG core: AT, RTG core: CT)
recombinant barcode read abundance (log10): 0.637

GGGCGGACCTGGGTTCTAACCTGTTGCGGAG [GGGCGGACTCC_LTGcore_CC_RTGcore_CT] (site GGGCGGACTCC) (LTG core: CC, RTG core: CT)
recombinant barcode read abundance (log10): 1.4

GGGCGGACTTGGGTTCTAACCTGTTGCGGAC [GGGCGGACTCC_LTGcore_CT_RTGcore_GT] (site GGGCGGACTCC) (LTG core: CT, RTG core: GT)
recombinant barcode read abundance (log10): 0.135

GGGCGGACTTGGGTTCTAACCTGTTGCGGGA [GGGCGGACTCC_LTGcore_CT_RTGcore_TC] (site GGGCGGACTCC) (LTG core: CT, RTG core: TC)
recombinant barcode read abundance (log10): 1.29

GGGCGGACTTGGGTTCTAACCTGTTGCGGTC [GGGCGGACTCC_LTGcore_CT_RTGcore_GA] (site GGGCGGACTCC) (LTG core: CT, RTG core: GA)
recombinant barcode read abundance (log10): 0.104

GGGCGTGCATGGGTTCTAACCTGTTGCCTAG [GGGCGTGCTAG_LTGcore_CA_RTGcore_CT] (site GGGCGTGCTAG) (LTG core: CA, RTG core: CT)
recombinant barcode read abundance (log10): 0.233

GGGCGTGCCTGGGTTCTAACCTGTTGCCTAG [GGGCGTGCTAG_LTGcore_CC_RTGcore_CT] (site GGGCGTGCTAG) (LTG core: CC, RTG core: CT)
recombinant barcode read abundance (log10): 0.255

GGGCGTGCTTGGGTTCTAACCTGTTGCCTCG [GGGCGTGCTAG_LTGcore_CT_RTGcore_CG] (site GGGCGTGCTAG) (LTG core: CT, RTG core: CG)
recombinant barcode read abundance (log10): 0.166

GGGCGTGCTTGGGTTCTAACCTGTTGCCTTA [GGGCGTGCTAG_LTGcore_CT_RTGcore_TA] (site GGGCGTGCTAG) (LTG core: CT, RTG core: TA)
recombinant barcode read abundance (log10): 0.139
